Data as given in ChEMBL document CHEMBL5291721, “A preclinical secondary pharmacology resource illuminates target-adverse drug reaction associations of marketed drugs” (Nat Commun, 2023).

Key:
[1] = biological target: T1, 5-hydroxytryptamine receptor 2C (Homo sapiens, UniProt P28335)
T1 sequence (P28335 whole entry): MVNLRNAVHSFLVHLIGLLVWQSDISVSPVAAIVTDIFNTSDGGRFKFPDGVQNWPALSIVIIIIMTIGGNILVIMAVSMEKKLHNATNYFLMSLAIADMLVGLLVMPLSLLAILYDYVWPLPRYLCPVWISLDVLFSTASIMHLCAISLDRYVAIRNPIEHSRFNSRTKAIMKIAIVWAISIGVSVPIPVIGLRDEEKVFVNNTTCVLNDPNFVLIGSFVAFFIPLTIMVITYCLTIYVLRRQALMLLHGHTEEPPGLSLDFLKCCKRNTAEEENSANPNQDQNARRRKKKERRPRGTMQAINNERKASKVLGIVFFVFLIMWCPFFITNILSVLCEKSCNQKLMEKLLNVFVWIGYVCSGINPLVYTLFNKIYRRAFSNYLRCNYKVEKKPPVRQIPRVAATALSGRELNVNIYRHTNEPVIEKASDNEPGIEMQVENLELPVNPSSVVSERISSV

[2] = biological target: 3',5'-cyclic-AMP phosphodiesterase 4D (Homo sapiens, UniProt Q08499); format: functional
[3] = biological target: Growth hormone secretagogue receptor type 1 (Homo sapiens, UniProt Q92847)
[4] = biological target: T2, Prostaglandin G/H synthase 1 (Rattus norvegicus, UniProt Q63921); format: functional
T2 sequence (Q63921 whole entry): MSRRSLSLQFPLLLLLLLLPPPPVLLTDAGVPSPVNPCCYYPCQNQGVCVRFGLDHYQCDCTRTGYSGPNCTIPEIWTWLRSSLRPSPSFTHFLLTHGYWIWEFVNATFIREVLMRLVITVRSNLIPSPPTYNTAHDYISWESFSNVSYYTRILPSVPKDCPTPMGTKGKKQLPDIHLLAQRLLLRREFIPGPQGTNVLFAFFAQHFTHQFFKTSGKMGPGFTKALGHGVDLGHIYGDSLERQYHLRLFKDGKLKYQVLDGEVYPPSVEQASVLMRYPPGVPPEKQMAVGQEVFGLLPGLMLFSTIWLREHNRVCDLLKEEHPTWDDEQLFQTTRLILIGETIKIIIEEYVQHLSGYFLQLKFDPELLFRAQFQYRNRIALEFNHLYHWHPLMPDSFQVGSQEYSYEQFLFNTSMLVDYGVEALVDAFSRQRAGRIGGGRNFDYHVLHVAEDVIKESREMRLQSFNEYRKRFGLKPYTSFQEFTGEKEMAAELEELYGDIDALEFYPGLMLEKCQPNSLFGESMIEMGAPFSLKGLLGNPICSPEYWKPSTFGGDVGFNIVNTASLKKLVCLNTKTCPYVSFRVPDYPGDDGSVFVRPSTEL

[5] = biological target: Sodium-dependent noradrenaline transporter (Homo sapiens, UniProt P23975)
[6] = biological target: cGMP-inhibited 3',5'-cyclic phosphodiesterase 3A (Homo sapiens, UniProt Q14432); format: functional
Melanocortin receptor 3 = Melanocortin receptor 3 (Homo sapiens, UniProt P41968)
[7] = biological target: 5-hydroxytryptamine receptor 2B (Homo sapiens, UniProt P41595); format: functional, cell-based
Bile salt export pump = Bile salt export pump (Homo sapiens, UniProt O95342); format: functional
[8] = biological target: T3, Amine oxidase [flavin-containing] A (Homo sapiens, UniProt P21397); format: functional
T3 sequence (P21397 whole entry): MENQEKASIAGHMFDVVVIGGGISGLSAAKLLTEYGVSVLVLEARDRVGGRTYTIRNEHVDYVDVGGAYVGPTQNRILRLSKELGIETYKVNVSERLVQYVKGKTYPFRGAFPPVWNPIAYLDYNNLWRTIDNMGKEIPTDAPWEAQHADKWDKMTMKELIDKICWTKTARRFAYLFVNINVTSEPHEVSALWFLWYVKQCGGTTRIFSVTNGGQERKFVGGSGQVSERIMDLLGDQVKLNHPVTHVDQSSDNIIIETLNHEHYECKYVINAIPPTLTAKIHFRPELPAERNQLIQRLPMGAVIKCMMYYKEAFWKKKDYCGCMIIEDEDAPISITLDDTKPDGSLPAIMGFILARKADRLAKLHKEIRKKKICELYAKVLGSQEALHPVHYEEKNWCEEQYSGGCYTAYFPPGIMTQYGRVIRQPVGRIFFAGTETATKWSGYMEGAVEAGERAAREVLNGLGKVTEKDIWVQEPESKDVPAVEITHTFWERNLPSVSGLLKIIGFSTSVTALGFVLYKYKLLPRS

[9] = biological target: T4, Cholecystokinin receptor type A (Homo sapiens, UniProt P32238)
T4 sequence (P32238 whole entry): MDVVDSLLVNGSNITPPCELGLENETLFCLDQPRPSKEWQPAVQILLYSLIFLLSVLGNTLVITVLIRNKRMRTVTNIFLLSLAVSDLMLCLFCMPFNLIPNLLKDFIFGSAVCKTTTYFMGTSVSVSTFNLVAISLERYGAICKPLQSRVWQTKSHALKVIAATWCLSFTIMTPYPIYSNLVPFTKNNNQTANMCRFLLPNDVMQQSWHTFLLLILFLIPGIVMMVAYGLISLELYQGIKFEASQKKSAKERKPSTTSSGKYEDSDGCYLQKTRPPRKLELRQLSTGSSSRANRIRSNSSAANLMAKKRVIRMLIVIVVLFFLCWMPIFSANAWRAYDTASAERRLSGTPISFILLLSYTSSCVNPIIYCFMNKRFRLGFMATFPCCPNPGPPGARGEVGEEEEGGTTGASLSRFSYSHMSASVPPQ

[10] = biological target: T5, Alpha-2A adrenergic receptor (Homo sapiens, UniProt P08913); format: functional, cell-based
T5 sequence (P08913 whole entry): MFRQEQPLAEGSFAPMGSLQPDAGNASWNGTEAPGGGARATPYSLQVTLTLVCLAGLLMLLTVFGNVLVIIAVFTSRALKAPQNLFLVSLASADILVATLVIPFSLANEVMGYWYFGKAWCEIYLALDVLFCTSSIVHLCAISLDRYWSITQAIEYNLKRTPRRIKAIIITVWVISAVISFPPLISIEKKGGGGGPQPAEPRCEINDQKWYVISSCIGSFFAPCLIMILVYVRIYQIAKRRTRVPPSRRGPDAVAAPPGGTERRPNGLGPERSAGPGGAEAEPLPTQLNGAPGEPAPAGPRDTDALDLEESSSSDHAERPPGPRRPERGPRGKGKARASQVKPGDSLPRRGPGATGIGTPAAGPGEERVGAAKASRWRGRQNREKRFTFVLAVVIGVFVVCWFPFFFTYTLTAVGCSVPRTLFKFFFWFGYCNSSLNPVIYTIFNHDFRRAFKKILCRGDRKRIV
Further: assay procedure not described here.

Chain of Sodium-dependent noradrenaline transporter (P23975 whole entry): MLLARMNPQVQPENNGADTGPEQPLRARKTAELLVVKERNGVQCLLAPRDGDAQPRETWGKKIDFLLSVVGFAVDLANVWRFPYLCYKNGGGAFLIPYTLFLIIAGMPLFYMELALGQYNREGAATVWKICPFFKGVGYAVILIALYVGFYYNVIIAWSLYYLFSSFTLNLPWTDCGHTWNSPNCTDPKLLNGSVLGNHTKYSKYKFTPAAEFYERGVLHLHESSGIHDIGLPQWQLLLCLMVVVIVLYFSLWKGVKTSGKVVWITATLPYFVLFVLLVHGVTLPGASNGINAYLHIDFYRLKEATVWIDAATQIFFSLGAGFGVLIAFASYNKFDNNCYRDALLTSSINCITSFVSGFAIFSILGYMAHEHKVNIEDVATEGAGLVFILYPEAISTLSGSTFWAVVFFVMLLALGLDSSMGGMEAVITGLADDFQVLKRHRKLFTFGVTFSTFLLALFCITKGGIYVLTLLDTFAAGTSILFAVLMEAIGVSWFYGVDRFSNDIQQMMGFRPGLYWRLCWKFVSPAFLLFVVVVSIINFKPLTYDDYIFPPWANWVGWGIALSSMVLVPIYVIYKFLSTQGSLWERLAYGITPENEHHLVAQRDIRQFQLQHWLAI
Chain of Melanocortin receptor 3 (P41968 whole entry): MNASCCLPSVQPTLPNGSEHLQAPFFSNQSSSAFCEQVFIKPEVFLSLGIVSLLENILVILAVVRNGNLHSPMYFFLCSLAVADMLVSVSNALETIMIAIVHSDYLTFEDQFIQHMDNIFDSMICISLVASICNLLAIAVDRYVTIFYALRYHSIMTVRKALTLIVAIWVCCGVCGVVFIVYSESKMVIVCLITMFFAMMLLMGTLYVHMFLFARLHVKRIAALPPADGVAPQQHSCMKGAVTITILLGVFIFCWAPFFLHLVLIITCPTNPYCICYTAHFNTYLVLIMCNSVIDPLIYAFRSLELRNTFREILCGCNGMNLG
Chain of Bile salt export pump (O95342 whole entry): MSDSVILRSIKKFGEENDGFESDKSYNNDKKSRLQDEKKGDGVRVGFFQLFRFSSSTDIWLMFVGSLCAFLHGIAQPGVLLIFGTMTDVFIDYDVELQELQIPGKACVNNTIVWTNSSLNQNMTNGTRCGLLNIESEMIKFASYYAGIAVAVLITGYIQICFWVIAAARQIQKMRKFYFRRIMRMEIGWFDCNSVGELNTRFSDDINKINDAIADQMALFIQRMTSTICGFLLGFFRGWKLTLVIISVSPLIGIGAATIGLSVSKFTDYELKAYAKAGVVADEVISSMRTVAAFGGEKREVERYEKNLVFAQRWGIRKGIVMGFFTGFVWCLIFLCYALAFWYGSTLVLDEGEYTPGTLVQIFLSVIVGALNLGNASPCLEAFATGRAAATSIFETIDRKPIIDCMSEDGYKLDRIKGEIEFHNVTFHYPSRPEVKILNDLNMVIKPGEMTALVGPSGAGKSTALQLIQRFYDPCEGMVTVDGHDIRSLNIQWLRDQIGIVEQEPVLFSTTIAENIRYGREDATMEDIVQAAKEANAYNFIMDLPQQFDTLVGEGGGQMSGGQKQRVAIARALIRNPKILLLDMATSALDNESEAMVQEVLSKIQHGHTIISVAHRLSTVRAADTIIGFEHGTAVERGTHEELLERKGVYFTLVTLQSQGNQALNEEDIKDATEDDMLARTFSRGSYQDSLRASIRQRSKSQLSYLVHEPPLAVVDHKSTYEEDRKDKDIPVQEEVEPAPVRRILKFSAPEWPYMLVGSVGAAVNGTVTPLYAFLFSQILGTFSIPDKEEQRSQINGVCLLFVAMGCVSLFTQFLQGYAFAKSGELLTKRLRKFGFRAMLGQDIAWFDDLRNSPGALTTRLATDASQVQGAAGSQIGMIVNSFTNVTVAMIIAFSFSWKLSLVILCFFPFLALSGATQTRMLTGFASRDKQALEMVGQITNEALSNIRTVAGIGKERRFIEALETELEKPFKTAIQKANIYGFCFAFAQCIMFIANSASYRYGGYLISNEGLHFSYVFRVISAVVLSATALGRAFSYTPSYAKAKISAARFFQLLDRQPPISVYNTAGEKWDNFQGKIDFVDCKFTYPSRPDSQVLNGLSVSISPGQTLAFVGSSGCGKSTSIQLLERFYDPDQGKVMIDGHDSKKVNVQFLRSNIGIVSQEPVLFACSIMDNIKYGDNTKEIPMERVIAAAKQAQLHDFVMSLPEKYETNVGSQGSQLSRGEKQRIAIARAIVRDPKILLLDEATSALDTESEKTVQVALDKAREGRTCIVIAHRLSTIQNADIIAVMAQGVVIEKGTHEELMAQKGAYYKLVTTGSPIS
Chain of 3',5'-cyclic-AMP phosphodiesterase 4D (Q08499 whole entry): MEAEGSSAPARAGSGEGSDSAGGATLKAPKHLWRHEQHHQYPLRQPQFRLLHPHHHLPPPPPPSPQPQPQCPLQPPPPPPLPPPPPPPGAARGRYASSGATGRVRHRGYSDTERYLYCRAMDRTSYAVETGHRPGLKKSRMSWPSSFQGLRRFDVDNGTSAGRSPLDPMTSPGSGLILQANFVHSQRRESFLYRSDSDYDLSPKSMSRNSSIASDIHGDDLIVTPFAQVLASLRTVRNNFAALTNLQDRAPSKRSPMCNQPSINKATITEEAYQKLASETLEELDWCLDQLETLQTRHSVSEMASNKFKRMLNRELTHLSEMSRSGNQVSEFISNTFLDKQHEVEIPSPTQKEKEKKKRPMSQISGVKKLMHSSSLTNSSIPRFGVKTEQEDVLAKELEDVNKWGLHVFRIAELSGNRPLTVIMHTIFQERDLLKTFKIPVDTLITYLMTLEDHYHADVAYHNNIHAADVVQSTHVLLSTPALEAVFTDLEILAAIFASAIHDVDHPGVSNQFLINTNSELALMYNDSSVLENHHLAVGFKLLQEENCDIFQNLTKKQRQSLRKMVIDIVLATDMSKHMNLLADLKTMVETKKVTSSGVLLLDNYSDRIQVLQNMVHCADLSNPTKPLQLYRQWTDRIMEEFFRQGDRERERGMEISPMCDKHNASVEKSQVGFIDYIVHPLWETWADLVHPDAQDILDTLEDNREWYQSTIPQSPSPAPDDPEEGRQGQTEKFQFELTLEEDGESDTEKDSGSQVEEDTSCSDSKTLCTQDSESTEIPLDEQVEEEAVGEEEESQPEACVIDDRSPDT
Chain of 5-hydroxytryptamine receptor 2B (P41595 whole entry): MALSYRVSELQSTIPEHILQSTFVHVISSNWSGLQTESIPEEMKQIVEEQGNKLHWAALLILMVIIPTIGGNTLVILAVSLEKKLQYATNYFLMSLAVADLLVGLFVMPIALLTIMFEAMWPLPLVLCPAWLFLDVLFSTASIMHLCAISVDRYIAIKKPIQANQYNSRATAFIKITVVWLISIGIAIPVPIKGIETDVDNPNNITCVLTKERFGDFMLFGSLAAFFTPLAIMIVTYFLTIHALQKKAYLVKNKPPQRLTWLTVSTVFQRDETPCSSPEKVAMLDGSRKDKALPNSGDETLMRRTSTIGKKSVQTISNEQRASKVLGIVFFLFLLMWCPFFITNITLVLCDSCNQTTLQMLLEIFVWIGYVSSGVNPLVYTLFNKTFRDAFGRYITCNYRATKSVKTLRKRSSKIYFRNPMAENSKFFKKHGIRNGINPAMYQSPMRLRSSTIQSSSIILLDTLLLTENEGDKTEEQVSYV
Chain of Growth hormone secretagogue receptor type 1 (Q92847 whole entry): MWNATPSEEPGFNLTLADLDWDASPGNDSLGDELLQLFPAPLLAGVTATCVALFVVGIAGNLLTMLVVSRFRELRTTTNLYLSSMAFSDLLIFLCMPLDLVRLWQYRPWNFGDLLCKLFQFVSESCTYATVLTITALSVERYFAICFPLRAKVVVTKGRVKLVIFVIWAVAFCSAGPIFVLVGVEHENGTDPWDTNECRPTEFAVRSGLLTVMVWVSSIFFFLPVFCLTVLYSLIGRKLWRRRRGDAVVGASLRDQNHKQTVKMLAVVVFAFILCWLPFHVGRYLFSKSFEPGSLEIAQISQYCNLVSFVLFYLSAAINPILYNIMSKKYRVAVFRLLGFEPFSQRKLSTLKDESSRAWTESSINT
Chain of cGMP-inhibited 3',5'-cyclic phosphodiesterase 3A (Q14432 whole entry): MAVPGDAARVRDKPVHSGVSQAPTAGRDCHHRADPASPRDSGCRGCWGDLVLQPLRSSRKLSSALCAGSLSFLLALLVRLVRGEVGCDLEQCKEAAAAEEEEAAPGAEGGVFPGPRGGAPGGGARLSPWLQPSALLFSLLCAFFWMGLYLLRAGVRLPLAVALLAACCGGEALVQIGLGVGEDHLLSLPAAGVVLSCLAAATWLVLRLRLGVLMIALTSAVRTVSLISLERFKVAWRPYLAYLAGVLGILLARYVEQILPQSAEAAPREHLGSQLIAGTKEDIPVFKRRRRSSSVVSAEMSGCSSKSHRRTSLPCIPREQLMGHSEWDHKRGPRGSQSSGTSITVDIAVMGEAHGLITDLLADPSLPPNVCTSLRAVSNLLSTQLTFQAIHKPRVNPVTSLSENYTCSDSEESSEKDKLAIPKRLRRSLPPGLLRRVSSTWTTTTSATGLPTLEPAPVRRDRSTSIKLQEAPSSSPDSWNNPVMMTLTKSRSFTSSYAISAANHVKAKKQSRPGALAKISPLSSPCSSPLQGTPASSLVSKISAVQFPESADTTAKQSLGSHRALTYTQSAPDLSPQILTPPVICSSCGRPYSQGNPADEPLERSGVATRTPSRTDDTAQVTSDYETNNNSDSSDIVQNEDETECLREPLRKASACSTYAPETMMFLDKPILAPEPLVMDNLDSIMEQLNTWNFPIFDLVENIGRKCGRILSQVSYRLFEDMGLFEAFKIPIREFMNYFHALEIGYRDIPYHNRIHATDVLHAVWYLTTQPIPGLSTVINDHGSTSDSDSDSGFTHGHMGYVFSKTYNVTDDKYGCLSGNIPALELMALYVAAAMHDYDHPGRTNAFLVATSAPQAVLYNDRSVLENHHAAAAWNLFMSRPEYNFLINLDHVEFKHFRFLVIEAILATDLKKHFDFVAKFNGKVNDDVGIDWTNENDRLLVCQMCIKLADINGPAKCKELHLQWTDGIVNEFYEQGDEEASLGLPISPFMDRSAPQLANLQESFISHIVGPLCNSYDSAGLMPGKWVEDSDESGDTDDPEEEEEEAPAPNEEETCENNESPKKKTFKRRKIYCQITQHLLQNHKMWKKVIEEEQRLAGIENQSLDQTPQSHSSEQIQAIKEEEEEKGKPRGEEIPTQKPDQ

SMILES	AC50 [1]	AC50 [2]	AC50 [3]	AC50 [4]	AC50 [5]	AC50 [6]	AC50 (Melanocortin receptor 3)	AC50 [7]	AC50 (Bile salt export pump)	AC50 [8]	AC50 [9]	AC50 [10]
CN1C(=O)CC(C)(c2ccccc2)C1=O (centres undefined) [METHSUXIMIDE]	> 30 µM	> 30 µM	> 10 µM	> 10 µM	> 10 µM	> 30 µM	> 10 µM	> 10 µM	> 300 µM	> 10 µM	> 10 µM	> 10 µM
C[C@H]1C[C@@H]2[C@H]([C@@H](O)C[C@@]3(C)[C@H]2CC[C@]3(O)C(=O)CO)[C@@]2(C)C=CC(=O)C=C12 [METHYLPREDNISOLONE]	> 30 µM	16 µM	> 10 µM	> 10 µM	> 10 µM	> 30 µM	> 10 µM	> 10 µM	140 µM	> 30 µM	> 10 µM	> 10 µM
CCN(CC)CCNC(=O)c1cc(Cl)c(N)cc1OC [METOCLOPRAMIDE]	> 10 µM	> 30 µM	> 30 µM	> 30 µM	> 10 µM	> 30 µM	> 30 µM	> 10 µM	> 300 µM	> 10 µM	> 30 µM	> 10 µM
CC(C)(C(=O)c1cccnc1)c1cccnc1 [METYRAPONE]	> 30 µM	> 30 µM	> 10 µM	> 10 µM	> 10 µM	> 30 µM	> 10 µM	> 10 µM	280 µM	> 10 µM	> 10 µM	> 10 µM
NC(=O)c1ncn([C@@H]2O[C@H](CO)[C@@H](O)[C@H]2O)c1O [MIZORIBINE]	> 30 µM	> 30 µM	> 30 µM	> 30 µM	> 30 µM	> 30 µM	> 30 µM	> 30 µM	> 300 µM	> 30 µM	> 30 µM	> 30 µM
COC(=O)C1=C(C)NC(C)=C(C(=O)OCC(C)C)C1c1ccccc1[N+](=O)[O-] (centres undefined) [NISOLDIPINE]	> 30 µM	11 µM	> 10 µM	> 10 µM	> 10 µM	6.2 µM	> 10 µM	> 10 µM	8 µM	> 10 µM	> 10 µM	> 10 µM
NC1=NC(=O)C(c2ccccc2)O1 (centres undefined) [PEMOLINE]	> 30 µM	> 30 µM	> 30 µM	> 30 µM	> 30 µM	> 30 µM	> 30 µM	> 10 µM	> 300 µM	> 10 µM	> 30 µM	> 10 µM
